Results published in patent US8617871B2, “Method and culture medium for enhanced detection of Mycobacterium” (bioMerieux, Inc., priority 2009, dated 2013).
“And” between values parts separate entries of the source, which are not always exact repeats. Equal values may be shown once. Read-outs that look alike come from different tables or passages of the source.

Columns and labels:
M. intracellulare = type: cell-based, Mycobacterium intracellulare
M. tuberculosis = test: Time to detection (TTD) of growth in BacT/ALERT MP culture bottles; type: cell-based, Mycobacterium tuberculosis; details: for # Positive: of # Tested
M. kansasii = test: as above; type: cell-based, Mycobacterium kansasii; details: for effect on the growth (as determined by TTD of growth): Mycobacterium kansasii, compared to a culture medium that contained no antimicrobial agents; for # Positives: M. kansasii 12478, of # Tested
Description: (§1) For the new NS, an autoclaved or new BacT/ALERT® MP bottle was used (as described hereinabove) and for conventional/old RF, conventional/old MP bottle (bioMérieux, Inc.) was used. […] The conventional MAS (using conventional/old RF) and new MAS formulas (using NS) were added to the second set of MP culture bottles. The experiment was performed with mycobacteria species at 0.5×10^3 CFU/ml and CRF cultures at 0.5×10^5 CFU/ml.
(§2) The mycobacteria inoculum was 0.5×10^3 CFU/ml.

M. scrofulaceum = test: as above; type: cell-based, Mycobacterium scrofulaceum; details: for effect on the growth (as determined by TTD of growth): Mycobacterium scrofulaceum, compared to a culture medium that contained no antimicrobial agents; for # Positives: of # Tested
Description: as §1, §2

M. fortuitum = test: as above; type: cell-based; details: M. fortuitum 6841; for # Positives: of # Tested
[1] = tested on: contaminating respiratory flora (CRF); type: cell-based
M. avium = type: cell-based, Mycobacterium avium
[2] = M. tuberculosis 27294, Media + AZL 24
[3] = M. scrofulaceum 19981, Media + VAN 3.5

CC1(C)S[C@@H]2[C@H](NC(=O)[C@H](NC(=O)N3CCNC3=O)c3ccccc3)C(=O)N2[C@H]1C(=O)O [AZL, azlocillin]
effect on the growth (as determined by TTD of growth) (M. intracellulare): negative effect
# Positive (M. tuberculosis; M. tuberculosis 25177, Media + AZL12): 4.0
# Positive (M. tuberculosis; M. tuberculosis 25177, Media + AZL 24): 2.0
# Positive (M. tuberculosis; M. tuberculosis 25177, Media + AZL 48): 2.0
# Positive (M. tuberculosis; M. tuberculosis 27294, Media + AZL12): 4.0
Average TTD (M. tuberculosis; [2]): 16.0 days
# Positive (M. tuberculosis; [2]): 4.0
# Positive (M. tuberculosis; M. tuberculosis 27294, Media + AZL 48): 4.0
effect on the growth (as determined by TTD of growth) (M. tuberculosis; Mycobacterium tuberculosis, compared to a culture medium that contained no antimicrobial agents): negative effect
effect on the growth (as determined by TTD of growth) (M. kansasii): negative effect
effect on the growth (as determined by TTD of growth) (M. scrofulaceum): negative effect

CN[C@H](CC(C)C)C(=O)N[C@H]1C(=O)N[C@@H](CC(N)=O)C(=O)N[C@H]2C(=O)N[C@H]3C(=O)N[C@H](C(=O)N[C@H](C(=O)O)c4cc(O)cc(O)c4-c4cc3ccc4O)[C@H](O)c3ccc(c(Cl)c3)Oc3cc2cc(c3O[C@@H]2O[C@H](CO)[C@@H](O)[C@H](O)[C@H]2O[C@H]2C[C@](C)(N)[C@H](O)[C@H](C)O2)Oc2ccc(cc2Cl)[C@H]1O [VAN, vancomycin]
effect on the growth (as determined by TTD of growth) (M. tuberculosis): negative effect
# Positives (M. kansasii; Media + VAN 1.75): 4.0
# Positives (M. kansasii; Media + VAN 3.5): 2.0
effect on the growth (as determined by TTD of growth) (M. kansasii): negative effect
# Positives (M. scrofulaceum; M. scrofulaceum 19981, Media + VAN 1.75): 4.0
Average TTD (M. scrofulaceum; [3]): 14.0 days
# Positives (M. scrofulaceum; [3]): 4.0
# Positives (M. scrofulaceum; M. scrofulaceum 19981, Media + VAN 7): 1.0
effect on the growth (as determined by TTD of growth) (M. scrofulaceum): negative effect
Average TTD (M. fortuitum; Media + VAN 1.75): 4.7 days
# Positives (M. fortuitum; Media + VAN 1.75): 4.0
Average TTD (M. fortuitum; Media + VAN 3.5): 4.1 days
# Positives (M. fortuitum; Media + VAN 3.5): 4.0
Average TTD (M. fortuitum; Media + VAN 7): 4.8 days
# Positives (M. fortuitum; Media + VAN 7): 4.0

C[C@@H]1O[C@@H]1P(=O)(O)O [fosfomycin]
ability to suppress contaminating respiratory flora (CRF) [1]: the best choice for suppression of CRF

O=C(O)CCC(=O)C(=O)O [α-keto glutarate, α-ketoglutarate]
No. of positives (M. avium): 3
reduction in time to detection (TTD) of growth (M. avium): two
Avg. TTD (M. intracellulare): 9.0 days and 8.8 days
No. of positives (M. intracellulare): 3
reduction in time to detection (TTD) of growth (M. intracellulare): two
No. of positives (M. tuberculosis): 3
reduction in time to detection (TTD) of growth (M. tuberculosis): two
